According to patent US20260144788A1, “COMPOUND FOR SHP2 PROTEIN DEGRADATION AND MEDICAL USES THEREOF” (UBIX THERAPEUTICS, INC., priority 2022, published 2026):

Molecular target: T1, SHP2 protein (Homo sapiens, UniProt Q06124)
T1 sequence (Q06124 1-593): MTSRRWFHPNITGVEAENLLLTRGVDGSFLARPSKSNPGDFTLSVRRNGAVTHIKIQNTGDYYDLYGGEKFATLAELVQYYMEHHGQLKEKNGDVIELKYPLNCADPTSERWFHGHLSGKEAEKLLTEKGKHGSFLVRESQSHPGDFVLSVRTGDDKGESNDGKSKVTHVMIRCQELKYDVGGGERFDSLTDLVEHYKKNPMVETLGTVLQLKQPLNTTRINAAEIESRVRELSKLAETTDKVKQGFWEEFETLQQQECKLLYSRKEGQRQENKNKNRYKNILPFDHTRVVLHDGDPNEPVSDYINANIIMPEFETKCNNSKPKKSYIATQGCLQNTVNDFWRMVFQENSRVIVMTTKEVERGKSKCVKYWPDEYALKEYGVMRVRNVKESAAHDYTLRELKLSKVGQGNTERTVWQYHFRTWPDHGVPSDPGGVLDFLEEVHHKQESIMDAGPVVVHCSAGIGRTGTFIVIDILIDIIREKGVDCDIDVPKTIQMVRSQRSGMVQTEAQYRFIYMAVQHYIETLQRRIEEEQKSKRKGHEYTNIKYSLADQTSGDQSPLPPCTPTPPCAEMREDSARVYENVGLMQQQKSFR
Experiment: Measurement of SHP2 protein degradation in MV-4-11 cells (western blotting)
Assay type: cell-based
Design: endogenous in cells
Details: harvested after 24 hours
Procedure: MV-4-11 cells were treated with the synthesized Example compounds, and the amount of SHP2 protein present in the cells was measured using western blotting detection. The protocol for the experiment conducted using MV-4-11 cells is as follows.
[Culture] MV-4-11 cells were resuspended in IMDM MEDIUM (Hyclone, SH30228.01), 5% FBS (Hyclone, SV30207.02), 1% Penicillin-streptomycin (Welgene, LS 202-02) media and seeded at 1×10^6/mL in 12-well plates (1 mL each).
[Compound treatment]12-well plates were treated as follows. 10 mM stock dissolved in DMSO was serially diluted 1/100 or 1/10 with media, and the compounds were treated to the cells at a final concentration of 0.01, 0.1, 1 μM or 0.001, 0.01, 0.1 μM, and harvested after 24 hours. For the negative control group, DMSO diluted 1/100 or 1/1000 in media was added (3 μL DMSO+297 μL media or 1 μL DMSO+999 μL media).
[Harvest] Each well was pipetted with a 1 mL pipette, collected in a 1.5 mL microtube, and centrifuged (500 g, 5 min, 4° C.). The supernatant was removed, washed with PBS, and centrifuged again (500 g, 5 min, 4° C.). The supernatant was removed and a pellet was prepared.
[Cell lysis and sample preparation] Lysis buffer was prepared as follows. RIPA buffer (Biosesang, RC2038-050-00)+0.5 mM PMSF (SIGMA, P7626)+1× Protease/Phosphatase Inhibitor (Cell signaling, 5872S) were added at 50 μL per tube and incubated on ice for 30 minutes (vortexed at 0 and 30 minutes). After sonication (10 sec pulse, 30 sec rest, 5 cycles, 70% amplification) and centrifugation (15,000 g, 15 min, 4° C.), only the supernatant was transferred to a microtube. RIPA buffer 7.5 μL and sample 2.5 μL were added to a 96-well plate to dilute to 1/4, and then BCA Protein Assay Kit (iNtRON, 21071) A and B were mixed in a 50:1 ratio and 200 μL each was added. After that, the plate was incubated at 37° C. for 30 minutes and left at room temperature for 10 minutes. After shaking for 10 seconds with a SYNERGY H1 microplate reader from BioTek, the absorbance was measured at 562 nm. The protein was quantified using the measured value to prepare a sample, which was then incubated at 70° C. for 10 minutes. The sample buffer used at this time is a mixture of NuPAGE or Bolt 4× sample buffer (Invitrogen) and each 10× sample reducing agent according to the gel to be used, and RIPA buffer was used for protein dilution.
[Western blotting detection] Equal amounts of samples were loaded onto NuPAGE or Bolt Bis-tris 4-12% gradient gels and run (200 V, 35 min). This was transferred to […] NC membranes using Trans-blot Turbo (BIO-RAD) (1.3 A constant, 25 V limit, 15 min), and was blocked at room temperature for 1 hour with Skim milk or Intercept Blocking Buffer (LI-COR, 927-60001):0.1% TBST=1:1. Anti-SHPTP2 Mouse (1:500 in 2% BSA/0.2% TBST, size: 70 kDa, Santacruz sc-7384) was incubated overnight at 4° C., and Anti-GAPDH Rabbit (1:2,000 in 2% BSA/0.2% TBST, size: 37 kDa, CST #2118) was incubated at room temperature for 1.5 hours or 3 hours. After washing three times for 5 minutes each with 0.2% TBST washing buffer, secondary antibodies Anti-Mouse IgG (1:5,000 in 2% BSA/0.2% TBST, CST) and IRDye® 680RD Goat anti-Rabbit IgG Secondary Antibody (1:10,000 in 2% BSA/0.2% TBST, LI-COR 926-68071) were added, and incubated on a rocker at room temperature for 45 minutes. The resultants were washed five times for 5 minutes each with 0.2% TBST washing buffer, and detected using LI-COR's Odyssey. GAPDH was detected with a 700 nm channel, and SHPTP2 was detected using SuperSignal West Pico PLUS Chemiluminescent Substrate.

Row | Compound | SHP2% degradation (0.01 μM) [%] | SHP2% degradation (0.1 μM) [%]
1 | Cc1ncsc1-c1ccc(CNC(=O)[C@@H]2C[C@@H](O)CN2C(=O)[C@@H](NC(=O)C2(F)CC2)C(C)(C)C)c(OC2CCN(C[C@H]3CC[C@H](Nc4nccc(Sc5cnc(N6CCC(C)(CN)CC6)cn5)c4Cl)CC3)CC2)c1 [Example 7, (2S,4R)—N-(2-((1-(((1R,4S)-4-((4-((5-(4-(aminomethyl)-4-methylpiperidin-1-yl)pyrazin-2-yl)thio)-3-chloropyridin-2-yl)amino)cyclohexyl)methyl)piperidin-4-yl)oxy)-4-(4-methylthiazol-5-yl)benzyl)-1-((S)-2-(1-fluorocyclopropane-1-carboxamido)-3,3-dimethylbutanoyl)-4-hydroxypyrrolidine-2-carboxamide] | 10.1 | 55.4
2 | Cc1ncsc1-c1ccc(CNC(=O)[C@@H]2C[C@@H](O)CN2C(=O)[C@@H](NC(=O)C2(F)CC2)C(C)(C)C)c(OCCN2CCN(CC3CCN(c4nccc(Sc5cnc(N6CCC(C)(CN)CC6)cn5)c4Cl)CC3)CC2)c1 [Example 8, (2S,4R)—N-(2-(2-(4-((1-(4-((5-(4-(aminomethyl)-4-methylpiperidin-1-yl)pyrazin-2-yl)thio)-3-chloropyridin-2-yl)piperidin-4-yl)methyl)piperazin-1-yl)ethoxy)-4-(4-methylthiazol-5-yl)benzyl)-1-((S)-2-(1-fluorocyclopropane-1-carboxamido)-3,3-dimethylbutanoyl)-4-hydroxypyrrolidine-2-carboxamide] | 11.7 | 81.9
3 | Cc1ncsc1-c1ccc(CNC(=O)[C@@H]2C[C@@H](O)CN2C(=O)[C@@H](NC(=O)C2(F)CC2)C(C)(C)C)c(OC2CCN(CC3CCN(c4nccc(Sc5cnc(N6CCC(C)(CN)CC6)cn5)c4Cl)CC3)CC2)c1 [Example 9, (2S,4R)—N-(2-((1-((1-(4-((5-(4-(aminomethyl)-4-methylpiperidin-1-yl)pyrazin-2-yl)thio)-3-chloropyridin-2-yl)piperidin-4-yl)methyl)piperidin-4-yl)oxy)-4-(4-methylthiazol-5-yl)benzyl)-1-((S)-2-(1-fluorocyclopropane-1-carboxamido)-3,3-dimethylbutanoyl)-4-hydroxypyrrolidine-2-carboxamide] | 4.0 | 81.1
4 | Cc1ncsc1-c1ccc(CNC(=O)[C@@H]2C[C@@H](O)CN2C(=O)[C@@H](NC(=O)C2(F)CC2)C(C)(C)C)c(O[C@H]2CC[C@H](C(=O)N3CC(Nc4cccc(Sc5cnc(N6CCC7(CC6)Cc6ccccc6[C@H]7N)cn5)c4Cl)C3)CC2)c1 [Example 14, (2S,4R)—N-(2-(((1R,4S)-4-(3-((3-((5-((S)-1-amino-1,3-dihydrospiro[indene-2,4′-piperidin]-1′-yl)pyrazin-2-yl)thio)-2-chlorophenyl)amino)azetidine-1-carbonyl)cyclohexyl)oxy)-4-(4-methylthiazol-5-yl)benzyl)-1-((S)-2-(1-fluorocyclopropane-1-carboxamido)-3,3-dimethylbutanoyl)-4-hydroxypyrrolidine-2-carboxamide] | 1.2 | 85.1

Next, values leading:

Row | SHP2% degradation (0.01 μM) [%] | SHP2% degradation (0.1 μM) [%] | Compound
5 | 14.8 | 56.9 | Cc1ncsc1-c1ccc(CNC(=O)[C@@H]2C[C@@H](O)CN2C(=O)[C@@H](NC(=O)C2(F)CC2)C(C)(C)C)c(O[C@H]2CC[C@H](CN3CCC(Nc4cccc(Sc5cnc(N6CCC(C)(CN)CC6)cn5)c4Cl)CC3)CC2)c1 [Example 6, (2S,4R)—N-(2-(((1R,4S)-4-((4-((3-((5-(4-(aminomethyl)-4-methylpiperidin-1-yl)pyrazin-2-yl)thio)-2-chlorophenyl)amino)piperidin-1-yl)methyl)cyclohexyl)oxy)-4-(4-methylthiazol-5-yl)benzyl)-1-((S)-2-(1-fluorocyclopropane-1-carboxamido)-3,3-dimethylbutanoyl)-4-hydroxypyrrolidine-2-carboxamide]
6 | 83 | 97.9 | Cc1ncsc1-c1ccc(CNC(=O)[C@@H]2C[C@@H](O)CN2C(=O)[C@@H](NC(=O)C2(F)CC2)C(C)(C)C)c(O[C@H]2CC[C@H](C(=O)N3CC(Nc4cccc(Sc5cnc(N6CCC(C)(CN)CC6)cn5)c4Cl)C3)CC2)c1 [Example 11, (2S,4R)—N-(2-(((1R,4S)-4-(3-((3-((5-(4-(aminomethyl)-4-methylpiperidin-1-yl)pyrazin-2-yl)thio)-2-chlorophenyl)amino)azetidine-1-carbonyl)cyclohexyl)oxy)-4-(4-methylthiazol-5-yl)benzyl)-1-((S)-2-(1-fluorocyclopropane-1-carboxamido)-3,3-dimethylbutanoyl)-4-hydroxypyrrolidine-2-carboxamide]
7 | 83.7 | 98.6 | Cc1ncsc1-c1ccc(CNC(=O)[C@@H]2C[C@@H](O)CN2C(=O)[C@@H](NC(=O)C2(F)CC2)C(C)(C)C)c(O[C@H]2CC[C@H](C(=O)N3CC(Nc4cccc(Sc5cnc(N6CCC(C)(N)CC6)cn5)c4Cl)C3)CC2)c1 [Example 12, (2S,4R)—N-(2-(((1R,4S)-4-(3-((3-((5-(4-amino-4-methylpiperidin-1-yl)pyrazin-2-yl)thio)-2-chlorophenyl)amino)azetidine-1-carbonyl)cyclohexyl)oxy)-4-(4-methylthiazol-5-yl)benzyl)-1-((S)-2-(1-fluorocyclopropane-1-carboxamido)-3,3-dimethylbutanoyl)-4-hydroxypyrrolidine-2-carboxamide]
8 | 93.8 | 99.5 | Cc1ncsc1-c1ccc(CNC(=O)[C@@H]2C[C@@H](O)CN2C(=O)[C@@H](NC(=O)C2(F)CC2)C(C)(C)C)c(O[C@H]2CC[C@H](C(=O)N3CC(Nc4cccc(Sc5cnc(N6CCC7(CC6)CO[C@@H](C)[C@H]7N)cn5)c4Cl)C3)CC2)c1 [Example 13, (2S,4R)—N-(2-(((1R,4S)-4-(3-((3-((5-((3S,4S)-4-amino-3-methyl-2-oxa-8-azaspiro[4.5]decan-8-yl)pyrazin-2-yl)thio)-2-chlorophenyl)amino)azetidine-1-carbonyl)cyclohexyl)oxy)-4-(4-methylthiazol-5-yl)benzyl)-1-((S)-2-(1-fluorocyclopropane-1-carboxamido)-3,3-dimethylbutanoyl)-4-hydroxypyrrolidine-2-carboxamide]
